Literature values as cited in patent US12071673B2, “Methods of diagnosis, selection, and treatment of diseases and conditions caused by or associated with methanogens” (Cedars-Sinai Medical Center, priority 2013, dated 2024).

What was measured:
[1] = tested on: methanogens; details: retrospective study, 10 days; for reduction in methane: breath methane

Molecule	reduction of proximal small bowel motility (average) (5 dogs, methane infused through mid-small bowel fistula) [%]	slowing of small intestinal transit (in vivo animal study, methane infused into the small intestine) [%]	reduction in constipation symptoms [1] [%]	reduction in methane [1] [%]
C [methane]	59	59		
CO[C@H]1/C=C/O[C@@]2(C)Oc3c(C)c(O)c4c(O)c(c5c(nc6cc(C)ccn65)c4c3C2=O)NC(=O)/C(C)=C\C=C\[C@H](C)[C@H](O)[C@@H](C)[C@@H](O)[C@@H](C)[C@H](OC(C)=O)[C@@H]1C [rifaximin]			56	28
neomycin			63	33
